Results from patent US20260215425A1, “NITRIFICATION INHIBITORS” (The University of Melbourne, priority 2022, published 2026).

Key:
N. europaea = test: standard nitrification inhibition assay (NO2- production, Griess); type: cell-based, Nitrosomonas europaea; settings: [NH4+]=3 mM, [inhibitor]=0.3 mM (10 mol %), pH 7.5, 30° C., 60 min
Protocol: (§1) Cells of N. multiformis and N. europaea were cultivated to the mid-exponential growth phase (OD600=0.1, [NO2^−] approximately 800 μM) and harvested by filtration onto 0.2 μm membrane filters (Mixed Cellulose Ester (MCE), Sigma Aldrich). The cells were washed with 2×100 mL of 0.1 M sodium phosphate buffer (NaPB), containing 0.2 mM MgSO4 at pH 7.5. The cells were washed from the filter paper by transferring it to a sterile 50 mL tube and resuspending in NaPB (15 mL), followed by 5 s of vortexing (Ratek, Australia) and 3 s of sonication (Vevor, Australia). […] Experiments were performed in triplicate.
(§2) In a deep 96-well plate (2 mL capacity), 980 μL of the bacterial inoculum (OD600=0.03) was added to the inhibitor (10 μL, 30 mmol L^−1 in Milli-Q water), the solutions were mixed thoroughly and pre-incubated in the dark for 5 minutes at 100 rpm and 30° C. (NH4)2SO4 (10 μL, 150 mM, from a prepared sterile solution containing 19.8 g L^−1 (NH4)2SO4 in Milli-Q water) was then added using a multi-channel pipette. The plate was covered with a with an O2 permeable membrane to ensure aeration (Breathe-Easy® sealing membrane, Sigma Aldrich) and incubated in a temperature-regulated rotary incubator (Ratek, Australia) in the dark for 60 minutes at 30° C. and 100 rpm. An aliquot of the reaction solution ([…]) was transferred to a 96-well spectrophotometric plate to which 50 µL of Griess reagent was added. The colour was allowed to develop for 15 minutes at room temperature, and the absorbance was measured at 540 nm. Each assay was accompanied by control treatments to determine the 0% and 100% NO2 signal. The percentage inhibition was calculated according to eqn. 1 from the NO2 production of the cells in NaPB (i) without additive (‘untreated cells’: 0% signal), (ii) with [NH4^+]=3 mM (‘uninhibited’ cells: 100% signal) and (iii) with [NH4^+]=3 mM and [inhibitor]=0.3 mM and 0.03 mM (10 mol % and 1 mol % of [NH4^+], ‘inhibited cells’). Experiments were performed in triplicate.

N. multiformis = test: as above; type: cell-based, Nitrosospira multiformis; settings: [NH4+]=3 mM, [inhibitor]=0.3 mM (10 mol %), pH 7.5, 30° C., 60 min
Protocol: as §1, §2

soil A = test: soil incubation, NH4+ and NO3- in soil A; settings: 5 mol % of applied fertiliser-N, 21 days
Protocol: Soils used in these studies were air-dried, ground and sieved (2 mm) prior to use. Soil microcosm incubations were carried out in 250 mL polypropylene specimen containers (Sarstedt, Germany), containing 20 g oven dry-weight equivalent of soil. Microcosms were treated with half the volume of water required to meet the desired water-filled pore space (WFPS %) of 60% and pre-incubated at 25° C. for seven days to revive soil microbial activity. Following pre-incubation, the remaining volume to reach the WFPS % was applied as one of the treatment solutions: (1) fertiliser ((NH4)2SO4,) 100 mg kg^−1, (2) fertiliser+0.5 mol % 4-MPT, (3) fertiliser+2.5 mol % 4-MPT, (4) fertiliser+5 mol % 4-MPT or (5) fertiliser+5 mol % compound 1, with three replicates of each treatment per time interval (n=3). Throughout the incubation period soil microcosms were kept aerated by removing the lid for 10 minutes every 2-3 days to allow gas exchange, and moisture levels were replenished via addition of Milli-Q water as required. At the end of the desired incubation period (i.e., after 0, 3, 7, 14, and 21 days, respectively), soil microcosms were removed and destructively sampled by treating with 2 M aqueous potassium chloride solution (KCl, 100 mL) and shaking for 1 h. Soil-KCl solutions were filtered (Whatman No. 42), and the filtrates were stored at −20° C. until the conclusion of the experiment, when all KCl extracts were analysed for the concentration of soil mineral nitrogen from ammonium (NH4^+—N) and from nitrate (NO3^−—N; the conversion of NO2 to NO3^− in soils is very rapid) after appropriate dilutions using Segmented Flow Analysis (San++, Skalar, Breda, The Netherlands). Results are reported as the mean of three replicates, errors reported are standard errors of the mean. Errors associated with raw data were carried through calculations using standard error propagation protocols.
To determine the nitrification inhibitory effect of 4-MPT in vivo, soil incubations were performed by measuring concentration-time profiles for NH4^+ and NO3^− in an acidic Australian soil (soil A, pH=5.9) over 21 days. 4-MPT was tested at three different concentrations (0.5 mol %, 2.5 mol % and 5 mol % of applied fertiliser-N) and compared with the alkyl-substituted compound 1 (5 mol % of applied fertiliser-N) to confirm the requirement of the N-propargyl substitutent for inhibitory activity (FIG. 5).

Compound | % Inhibition NE (N. europaea) | % Inhibition NM (N. multiformis) | NH4+ loss / conversion in soil (soil A)
C#CCNC(=O)Cn1cc(CCC)nn1 [Compound 4] | 7.1 ± 1% |  | 
CCCCn1cc(CCC)nn1 [Compound N013] | 60 ± 1% | 54 ± 2% | 
CCCn1cc(C)nn1 [Compound 1, 4-Methyl-1-(n-propyl)-1H-1,2,3-triazole] | complete loss of inhibitory activity | complete loss of inhibitory activity | negligible levels of NH4^+ remaining after 21 days of incubation
C#CCOC(=O)Cn1cc(CCC)nn1 [Compound 3] | 49 ± 2% | 47 ± 2% | 
C#CCCn1cc(CCC)nn1 [Compound 2] | 21 ± 2% | 40 ± 1% | 
